One test has as its system MCF-7 cells. Nature of the test: Cell viability (MTT) assay, MCF-7. Conditions: Homo sapiens, MCF7, 48 h, read-out: Antiproliferative IC50, MCF-7.
Another test concerns MDA-MB-231 cells. Description: Cell viability (MTT) assay, MDA-MB-231. Conditions: Homo sapiens, MDA-MB-231, 48 h, read-out: Antiproliferative IC50, MDA-MB-231.
The next test deals with HCT-116 cells. Nature of the test: Cell viability (MTT) assay, HCT-116. As to conditions: Homo sapiens, HCT-116, 48 h, read-out: Antiproliferative IC50, HCT-116.

Description for HCT-116 cells: Section S 1.3 Cell viability assays
(§1) Cell Bank at the Chinese Academy of Sciences.
(§2) DMEM and FBS were obtained from Gibco-Thermo (BRL Co. Ltd., USA).
(§3) another 48 h. The cells were stained with 10 μl of MTT at incubator for approximately 4 h. The medium was discarded and replaced by 100 mL DMSO. The O.D. value was read at 570/630 nm with a spectrophotometer.
Description for MCF-7 cells: Section S 1.3 Cell viability assays
as §1, §2, §3
Description for MDA-MB-231 cells: Section S 1.3 Cell viability assays
as §1, §2, §3

A word on the IC50: it is the point on the concentration scale where inhibition reaches its midpoint. As to `O=C(CCCCCCNc1ccc(NC(=O)c2cnc3scc(-c4ccc(Br)cc4)n23)cc1)NO` [Compound 10e, 3-(4-Bromophenyl)-N-{4-[(7-(hydroxyamino)-7-oxoheptyl)amino]phenyl}imidazo[2,1-b]thiazole-5-carboxamide], the half-maximal inhibitory concentration (IC50) was 36.5 ± 5.45 µM in the test on MCF-7 cells, 43.7 ± 1.89 µM with MDA-MB-231 cells and 16.4 ± 3.76 µM with HCT-116 cells.

For the origin of these results see publication PMC12195740, “Discovery of Novel Imidazothiazole-Based Hydroxamic Acid Derivatives as Potent Indoleamine 2,3-Dioxygenase 1 and Histone Deacetylase 6 Dual Inhibitors” (Molecules, 2025).
